# Measured values: patent US9255295B2, “Method for evaluating the sensitizing potential of a test compound” (IMMUNOSEARCH, priority 2010, dated 2016)
# Tests used:
# [1] = tested on: EPISKIN model; assay: Sensitizing power: sensitizing potential retested at successive dilutions in the EPISKIN model
# [2] = tested on: EPISKIN model
# [3] = tested on: ARE gene family (AKR1B10, AKR1C1, AKR1C2, CYP1B1, FTH1P, FTL, G6PD, GCLM, NQO2, SLC7A11, TXNRD1, UGT1A1, UGT1A9, YWHAZ, CD36, CYP1A1, GCLC, HMOX1, NQO1, PSME2 …)
# [4] = tested on: genes specific for sensitization (BRAK, CTSS, DAPK2, FABP4, HSP27, IL18, HSP90, IL1R2, TPSAB1, CXCR1, DEFB1, DHFR, EHF, IVL, KRT4, MELANA, NGAL, PDZK1IP1, PI3 …); assay: Expression of the other (non-ARE) sensitization-specific genes in EPISKIN reconstructed skin (quantitative RT-PCR); assay type: cell-based, human
compound,measurement,setting,value
CC(O)C(=O)O (stereo not drawn) [Ac Lactique],"NUMBER OF GENES overexpressed, sum column 8",[1],0
same,sensitizing potential (conclusion),[2],Non-sensitizing
same,AHR NUMBER OF GENES grade,[3],"0 (key: If the expression is greater than 1.3 compared to the control, a grade of 11s given; if this expression is lower, the grade is 0)"
same,AHR expression,[3],0.8
same,AKR1B10 NUMBER OF GENES grade,[3],"0 (key: If the expression is greater than 1.3 compared to the control, a grade of 11s given; if this expression is lower, the grade is 0)"
same,AKR1C1 NUMBER OF GENES grade,[3],"0 (key: If the expression is greater than 1.3 compared to the control, a grade of 11s given; if this expression is lower, the grade is 0)"
same,AKR1C2 NUMBER OF GENES grade,[3],"0 (key: If the expression is greater than 1.3 compared to the control, a grade of 11s given; if this expression is lower, the grade is 0)"
same,ARE >1.3 (number of genes),[3],0
same,CYP1B1 NUMBER OF GENES grade,[3],"0 (key: If the expression is greater than 1.3 compared to the control, a grade of 11s given; if this expression is lower, the grade is 0)"
same,FTH1P NUMBER OF GENES grade,[3],"0 (key: If the expression is greater than 1.3 compared to the control, a grade of 11s given; if this expression is lower, the grade is 0)"
same,FTL NUMBER OF GENES grade,[3],"0 (key: If the expression is greater than 1.3 compared to the control, a grade of 11s given; if this expression is lower, the grade is 0)"
same,GCLC NUMBER OF GENES grade,[3],"0 (key: If the expression is greater than 1.3 compared to the control, a grade of 11s given; if this expression is lower, the grade is 0)"
same,GCLM NUMBER OF GENES grade,[3],"0 (key: If the expression is greater than 1.3 compared to the control, a grade of 11s given; if this expression is lower, the grade is 0)"
same,GCLM expression,[3],1.1
same,HMOX1 NUMBER OF GENES grade,[3],"0 (key: If the expression is greater than 1.3 compared to the control, a grade of 11s given; if this expression is lower, the grade is 0)"
same,NQO1 NUMBER OF GENES grade,[3],"0 (key: If the expression is greater than 1.3 compared to the control, a grade of 11s given; if this expression is lower, the grade is 0)"
same,NQO2 NUMBER OF GENES grade,[3],"0 (key: If the expression is greater than 1.3 compared to the control, a grade of 11s given; if this expression is lower, the grade is 0)"
same,NQO2 expression,[3],1.2
same,SLC7A11 NUMBER OF GENES grade,[3],"0 (key: If the expression is greater than 1.3 compared to the control, a grade of 11s given; if this expression is lower, the grade is 0)"
same,SLC7A11 expression,[3],1.0
same,TOTAL ARE (number of genes),[3],0
same,TXNRD1 NUMBER OF GENES grade,[3],"0 (key: If the expression is greater than 1.3 compared to the control, a grade of 11s given; if this expression is lower, the grade is 0)"
same,UGT1A1 NUMBER OF GENES grade,[3],"0 (key: If the expression is greater than 1.3 compared to the control, a grade of 11s given; if this expression is lower, the grade is 0)"
same,UGT1A1 expression,[3],1.3
same,UGT1A9 NUMBER OF GENES grade,[3],"0 (key: If the expression is greater than 1.3 compared to the control, a grade of 11s given; if this expression is lower, the grade is 0)"
same,UGT1A9 expression,[3],0.8
same,SENS >1.3 (number of genes),[4],1
